Assay results taken from patent US20200288710A1, “SUBSTITUTED SULPHONAMIDES FOR CONTROLLING ANIMAL PESTS” (BAYER CROPSCIENCE AKTIENGESELLSCHAFT, priority 2016, published 2020).

Legend:
Format in all cases: in vivo
Meloidogyne incognita = Meloidogyne incognita test; details: 336 h, lettuce, after 14 days, read-out: nematicidal efficacy (formation of galls)
Summary of the method: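 Gall formation on lettuce roots scored after 14 days: 0% means gall count equals untreated control, 100% means none. Sand vessels held the compound (acetone concentrate diluted in water), southern root-knot nematode egg/larvae suspension and lettuce seeds.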

Myzus persicae [1] = assay: Myzus persicae oral test; details: 120 h, oral uptake, after 5 days, read-out: efficacy
Summary of the method: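 Aphids of mixed ages imbibe, through parafilm, compound solution (acetone stock, water-diluted) combined with sugar-supplemented IPL41 medium to 200 μl. Efficacy read at day 5 as percent killed, 0% meaning no deaths.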

Myzus persicae [2] = assay: Myzus persicae spray test (Chinese cabbage leaf discs); details: foliar, 120 h, 500 g/ha, after 5-6 days, read-out: efficacy
Summary of the method: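 Formulated compound in acetone/dimethylformamide, diluted in water with 1000 ppm emulsifier, was sprayed onto Brassica pekinensis leaf discs carrying mixed-stage Myzus persicae. Percent mortality was read 5-6 days later (0% = no aphids killed, 100% = all killed).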

Phaedon cochleariae = Phaedon cochleariae spray test; details: foliar, 168 h, Chinese cabbage leaf discs, larvae, after 7 days, read-out: efficacy
Procedure: Phaedon cochleariae—Spray Test
To produce a suitable preparation of active compound, 1 part by weight of active compound is dissolved using the specified parts by weight of solvent and made up with water containing an emulsifier concentration of 1000 ppm until the desired concentration is attained. To produce further test concentrations, the formulation is diluted with emulsifier-containing water.
After 7 days, the efficacy in % is determined. 100% means that all the beetle larvae have been killed; 0% means that no beetle larvae have been killed.

| Structure (SMILES) | pest or weed control at 20 ppm (Meloidogyne incognita) [%] | pest or weed control at 20 ppm (Myzus persicae [1]) [%] | pest or weed control at 500 g/ha (Myzus persicae [2]) [%] | pest or weed control at 500 g/ha (Phaedon cochleariae) [%] | pest or weed control at 4 ppm (Myzus persicae [1]; 4 ppm) [%] |
| --- | --- | --- | --- | --- | --- |
| Cc1cccc(C)c1S(=O)(=O)NC(=O)c1cn(C)c(-c2ncccc2F)n1 [Example 602] | 90 | 100 | 90 | 83 | – |
| Cc1c(-c2c(F)cccc2F)nc(C(=O)NS(=O)(=O)c2ccccc2Br)n1C [Example 309] | 100 | – | – | 100 | – |
| CCc1ccccc1S(=O)(=O)NC(=O)c1cn(C)c(-c2ncccc2Cl)n1 [Example 581] | 100 | – | 100 | 100 | 100 |
| COc1ccc(Cl)c(S(=O)(=O)NC(=O)c2cn(C)c(-c3ncccc3Cl)n2)c1 [Example 575] | 90 | 100 | 90 | 83 | – |
| Cc1cc(C(=O)NS(=O)(=O)c2c(Cl)cccc2Cl)nn1-c1ccccc1Cl [Example 269] | 100 | 100 | 100 | 83 | – |
| Cc1ccccc1S(=O)(=O)NC(=O)c1nc(-c2c(F)cccc2F)n(C)c1Cl [Example 552] | 90 | – | 90 | 83 | – |
| CCc1ccc(Cl)cc1S(=O)(=O)NC(=O)c1cn(C)c(-c2ncccc2F)n1 [Example 603] | 90 | 100 | 90 | 100 | – |
| COc1ccc(Br)c(S(=O)(=O)NC(=O)c2cn(C)c(-c3ccccc3Cl)n2)c1 [Example 420] | 90 | 100 | 100 | 83 | – |
| Cc1cc(C)c(S(=O)(=O)NC(=O)c2cn(C)c(-c3c(F)cccc3F)n2)c(C)c1 [Example 436] | 90 | 100 | 90 | 100 | – |
| Cn1cc(C(=O)NS(=O)(=O)c2ccccc2Cl)nc1-c1c(Cl)cccc1Cl [Example 100] | 90 | 100 | 100 | 100 | – |
| COc1ccc(Cl)c(S(=O)(=O)NC(=O)c2nc(-c3c(F)cccc3F)n(C)c2C)c1 [Example 334] | 90 | – | – | 100 | – |
| Cc1cc(C(=O)NS(=O)(=O)c2cc(Cl)ccc2Br)nn1-c1c(F)cccc1F [Example 294] | 100 | 100 | 100 | 100 | – |
| Cc1cc(F)c(F)cc1S(=O)(=O)NC(=O)c1cn(C)c(-c2c(F)cccc2F)n1 [Example 289] | 90 | 100 | 90 | 100 | – |
| Cn1cc(C(=O)NS(=O)(=O)c2ccccc2C(F)(F)F)nc1-c1ccccc1Cl [Example 58] | 90 | 100 | 90 | 100 | – |
| Cn1cc(C(=O)NS(=O)(=O)c2c(Br)cccc2C(F)(F)F)nc1-c1c(F)cccc1F [Example 373] | 90 | 100 | 100 | 100 | – |
| Cn1cc(C(=O)NS(=O)(=O)c2cc(Br)ccc2Br)nc1-c1ccccc1Cl [Example 429] | 100 | 100 | 90 | 100 | – |
| Cc1ccc(F)cc1S(=O)(=O)NC(=O)c1cn(C)c(-c2ccccc2Cl)n1 [Example 425] | 90 | 100 | 100 | 100 | – |
| Cc1ccccc1S(=O)(=O)NC(=O)c1cn(C)c(-c2ncccc2Br)n1 [Example 579] | 90 | 100 | 100 | 100 | – |
| Cn1cc(C(=O)NS(=O)(=O)c2ccccc2Cl)nc1-c1c(F)cccc1Cl [Example 106] | 100 | 100 | 90 | 100 | – |
| Cn1cc(C(=O)NS(=O)(=O)c2ccccc2I)nc1-c1ccccc1Cl [Example 428] | 90 | 100 | 100 | 100 | – |
| Cn1cc(C(=O)NS(=O)(=O)c2ccccc2Cl)nc1-c1c(F)cc(F)cc1F [Example 2] | 90 | – | 90 | 100 | – |

| Structure (SMILES) | pest or weed control at 20 ppm (Meloidogyne incognita) [%] | pest or weed control at 20 ppm (Myzus persicae [1]) [%] | pest or weed control at 500 g/ha (Myzus persicae [2]) [%] | pest or weed control at 500 g/ha (Phaedon cochleariae) [%] | pest or weed control at 4 ppm (Myzus persicae [1]; 4 ppm) [%] |
| --- | --- | --- | --- | --- | --- |
| Cn1c(-c2ccccc2Cl)nc(C(=O)NS(=O)(=O)c2ccccc2Cl)c1Cl [Example 221] | 100 | 100 | – | 100 | – |
| Cc1cc(Br)ccc1S(=O)(=O)NC(=O)c1cn(C)c(-c2c(F)cccc2F)n1 [Example 446] | 90 | 100 | 90 | 100 | – |
| CCc1cccc(OC(F)F)c1S(=O)(=O)NC(=O)c1cn(C)c(-c2c(F)cccc2F)n1 [Example 339] | 100 | 100 | 90 | 100 | – |
| COc1ccc(Cl)c(S(=O)(=O)NC(=O)c2nc(-c3c(F)cccc3F)c(C)n2C)c1 [Example 307] | 100 | – | – | 100 | – |
| Cc1ccccc1S(=O)(=O)NC(=O)c1cn(C)c(-c2cccc3ccccc23)n1 [Example 216] | 90 | 100 | – | 100 | – |
| Cc1cccc(S(=O)(=O)NC(=O)c2cn(C)c(-c3c(F)cccc3F)n2)c1 [Example 176] | 100 | 90 | 90 | 83 | – |
| COc1ccc(Cl)c(S(=O)(=O)NC(=O)c2nc(-c3ccccc3Cl)n(C)c2Br)c1 [Example 222] | 100 | – | – | 100 | – |
| Cc1ccc(F)cc1S(=O)(=O)NC(=O)c1cn(C)c(-c2cccc(Cl)c2Cl)n1 [Example 319] | 90 | 100 | 100 | 100 | – |
| Cc1cccc(C(C)C)c1S(=O)(=O)NC(=O)c1cn(C)c(-c2c(F)cccc2F)n1 [Example 361] | 90 | – | – | 100 | – |
| COc1ccc(Cl)c(S(=O)(=O)NC(=O)c2nc(-c3ccccc3Cl)n(C)c2Cl)c1 [Example 577] | 100 | – | – | 100 | – |
| COc1cc(S(=O)(=O)NC(=O)c2cn(C)c(-c3ccccc3Cl)n2)c(C)cc1Br [Example 286] | 100 | 100 | – | 100 | – |
| Cc1ccccc1S(=O)(=O)NC(=O)c1nc(-c2ccccc2Cl)n(C)c1Cl [Example 205] | 100 | 100 | – | 100 | – |
| Cc1c(-c2c(F)cccc2F)nc(C(=O)NS(=O)(=O)c2ccccc2Cl)n1C [Example 308] | 90 | – | – | 100 | – |
| CCc1ccc(CC)c(S(=O)(=O)NC(=O)c2cn(C)c(-c3c(F)cccc3F)n2)c1 [Example 340] | 90 | – | – | 100 | – |
| Cc1cccc(OC(F)(F)F)c1S(=O)(=O)NC(=O)c1cn(C)c(-c2c(F)cccc2F)n1 [Example 405] | 90 | 100 | – | 100 | – |
| Cc1ccccc1S(=O)(=O)NC(=O)c1nc(-c2c(F)cccc2F)c(C)n1C [Example 311] | 100 | 100 | – | 83 | – |
| Cn1cc(C(=O)NS(=O)(=O)c2cccc(Cl)c2)nc1-c1c(Cl)cccc1Cl [Example 42] | 100 | – | 100 | 100 | – |
| Cn1cc(C(=O)NS(=O)(=O)c2c(Cl)cccc2Cl)nc1-c1ccccc1Cl [Example 227] | 100 | – | 100 | 83 | – |
| Cc1ccc(S(=O)(=O)NC(=O)c2cn(C)c(-c3ccccc3Cl)n2)cc1 [Example 164] | 90 | – | 100 | 100 | – |
| Cn1c(-c2c(F)cccc2F)nc(C(=O)NS(=O)(=O)c2ccccc2Cl)c1Cl [Example 550] | 90 | – | 90 | 100 | – |
